From US11040963B2 (priority 2017, dated 2021)

Key:
[1] = target: HA H1 A/California/07/09 (Influenza A virus (A/California/07/2009(H1N1)), UniProt C3W5X2); experiment: biochemical; settings: Competition binding (AlphaLISA), pIC50 H1 A/California/07/09
[2] = target: HA H1 A/New Caledonia/20/99 (Influenza A virus (A/New Caledonia/20/1999(H1N1)), UniProt Q6WG00); experiment: biochemical; settings: Competition binding (AlphaLISA), pIC50 H1 A/New Caledonia/20/99
H5N1 A/Vietnam/1203/04 = experiment: microbe, parasite or virus in culture; type: cell-based, influenza A virus; settings: Influenza A virus, H5N1, MDCK, 96 h, read-out: Virus neutralization assay (VNA), pEC50 H5N1 A/Vietnam/1203/04, MDCK cells, 96 h, CPE by ATPlite (converted); average of repeats
[3] = tested on: H1N1 A/New Caledonia/20/99; experiment: microbe, parasite or virus in culture; type: cell-based, influenza A virus; settings: Influenza A virus, H1N1, MDCK, 96 h, read-out: Virus neutralization assay (VNA), pEC50 H1N1 A/New Caledonia/20/99 (converted)
in vitro = settings: dog, Cytotoxicity (pCC50) MDCK
[4] = target: HA H5 A/Vietnam/1203/04 (Influenza A virus (A/Vietnam/1203/2004(H5N1)), UniProt Q5EP31); experiment: biochemical; settings: Competition binding (AlphaLISA), pIC50 H5 A/Vietnam/1203/04
H1N1 A/California/07/09 = experiment: microbe, parasite or virus in culture; type: cell-based, influenza A virus; settings: Influenza A virus, H1N1, MDCK, 96 h, read-out: Virus neutralization assay (VNA), pEC50 H1N1 A/California/07/09 (converted)

Row | SMILES | IC50 [1] | IC50 [2] | EC50 (H5N1 A/Vietnam/1203/04) | EC50 [3] | CC50 (in vitro) | IC50 [4] | EC50 (H1N1 A/California/07/09)
1 | COC(=O)C(c1ccccc1)N1CCN(C(=O)c2ccc(-c3nc4ccc(OC)cc4s3)o2)CC1 (stereo not shown) [Example 80] | 316 nM | 251 nM | > 50100 nM | 631 nM | > 50100 nM | 1000 nM | 1580 nM
2 | COC(=O)[C@@H](c1ccccc1)N1CCN(C(=O)c2cccc(-c3nc4cc(C(F)(F)F)ccc4o3)c2)[C@H](C)C1 [Example 37] | 63.1 nM | 50.1 nM | 31600 nM | 251 nM | > 50100 nM | 1580 nM | 251 nM
3 | CCc1nnc(C(c2ccccc2)N2CCN(C(=O)c3cccc(-c4nc5cc(C(F)(F)F)ccc5o4)c3)CC2)o1 (stereo not shown) [Example 109] | 79.4 nM | 158 nM | 25100 nM | 1260 nM | 10000 nM | 3980 nM | 501 nM
4 | Cc1nc([C@@H](c2ccccc2)N2CCN(C(=O)c3cc(-c4nc5cc(OC(F)(F)F)ccc5o4)ccn3)CC2)n[nH]1 [Example 134] | 39.8 nM | 15.8 nM | 3980 nM | 251 nM | > 50100 nM | 158 nM | 631 nM
5 | COc1ccc2oc(-c3cccc(C(=O)N4CCN(C(c5ccccc5)c5nnc(C)o5)CC4)c3)nc2c1 (stereo not shown) [Example 36] | 25.1 nM | 25.1 nM | 7940 nM | 126 nM | 20000 nM | 1000 nM | 158 nM
6 | Cc1nnc(C(c2ccccc2)N2CCN(C(=O)c3cc(-c4nc5ccccc5s4)ccc3F)CC2)o1 (stereo not shown) [Example 48] | 251 nM | 200 nM | > 50100 nM | 316 nM |  | 12600 nM | 631 nM
7 | COC(=O)[C@H](c1ccccc1)N1CCN(C(=O)c2cccc(-c3nc4cc(C(F)(F)F)ccc4o3)c2)[C@@H](C(N)=O)C1 [Example 62] | 100 nM | 100 nM | 20000 nM | 631 nM | 39800 nM | 3160 nM | 631 nM
8 | COC(=O)C(c1ccncc1)N1CCN(C(=O)c2cccc(-c3nc4ccc(OC)cc4s3)c2)CC1 (stereo not shown) [Example 122] | 398 nM | 200 nM | 12600 nM | 1580 nM | 10000 nM | 2510 nM | 3980 nM
9 | O=C(c1cc(-c2nc3cc(C(F)(F)F)ccc3o2)ccn1)N1CCN(C(c2ccccc2)c2nnc(C3CC3)o2)CC1 (stereo not shown) [Example 34] | 31.6 nM | 63.1 nM | 12600 nM | 251 nM | 39800 nM | 1260 nM | 126 nM
10 | COC(=O)C(c1ccccc1)N1C[C@H]2CC[C@@H](C1)N2C(=O)c1cccc(-c2nc3ccc(OC)cc3s2)c1 (stereo partly shown) [Example 88] | 200 nM | 126 nM | 12600 nM | 794 nM | > 50100 nM | 501 nM | 1000 nM
11 | Cn1nnc([C@@H](c2ccccc2)N2CCN(C(=O)c3cc(-c4nc5cc(OC(F)(F)F)ccc5o4)ccn3)CC2)n1 [Example 133] | 15.8 nM | 10 nM | 631 nM | 25.1 nM | > 50100 nM | 251 nM | 63.1 nM
12 | COc1ccc2nc(-c3cccc(C(=O)N4CCN(C(CO)c5ccccc5)CC4)c3)sc2c1 (stereo not shown) [Example 82] | 200 nM | 126 nM | 12600 nM | 631 nM | 5010 nM | 1000 nM | 2000 nM
13 | CCCNC(=O)C(c1ccccc1)N1CCN(C(=O)c2cccc(-c3nc4ccc(OC)cc4s3)c2)CC1 (stereo not shown) [Example 104] | 251 nM | 200 nM | 10000 nM | 1000 nM | 7940 nM | 2000 nM | 2510 nM
14 | COc1ccc2nc(-c3cccc(C(=O)N4CCN(C(C(=O)NCCCN)c5ccccc5)CC4)c3)sc2c1 (stereo not shown) [Example 55] | 63.1 nM | 50.1 nM | 10000 nM | 398 nM | > 50100 nM | 631 nM | 2000 nM
15 | Cc1nnc([C@@H](c2ccccc2)N2CCN(C(=O)c3cccc(-c4ncc5ccccc5n4)c3)CC2)o1 [Example 38] | 50.1 nM | 50.1 nM | 7940 nM | 200 nM | > 50100 nM | 2000 nM | 316 nM
16 | COc1ccc2nc(-c3cccc(C(=O)N4CCN(C(c5ccccc5)c5nncs5)CC4)c3)sc2c1 (stereo not shown) [Example 56] | 398 nM | 158 nM | > 50100 nM | 398 nM | > 50100 nM | 3160 nM | 5010 nM

Row | SMILES | IC50 [1] | IC50 [2] | EC50 (H5N1 A/Vietnam/1203/04) | EC50 [3] | CC50 (in vitro) | IC50 [4] | EC50 (H1N1 A/California/07/09)
17 | COc1ccc2oc(-c3ccnc(C(=O)N4CCN(C(c5ccccc5)c5nnc(C)o5)CC4)c3)nc2c1 (stereo not shown) [Example 25] | 15.8 nM | 25.1 nM | 3980 nM | 79.4 nM | 25100 nM | 794 nM | 63.1 nM
18 | CC(=O)Nc1ccc2oc(-c3ccnc(C(=O)N4CCN([C@H](c5ccccc5)c5nnc(C)o5)CC4)c3)nc2c1 [Example 15] | 3.16 nM | 6.31 nM | 7940 nM | 39.8 nM | > 50100 nM | 158 nM | 158 nM
19 | COC(=O)C(c1ccccc1)N1CCN(C(=O)c2cc(-c3nc4ccc(OC)cc4s3)ccn2)CC1 (stereo not shown) [Example 14] | 20 nM | 10 nM | 1000 nM | 63.1 nM | 15800 nM | 126 nM | 126 nM
20 | Cc1nnc([C@@H](c2ccccc2)N2CCN(C(=O)c3cc(-c4nc5cc(OC(F)(F)F)ccc5o4)ccn3)CC2)o1 [Example 12] | 6.31 nM | 7.94 nM | 1260 nM | 39.8 nM | 15800 nM | 158 nM | 39.8 nM
21 | COc1ccc2nc(-c3cccc(C(=O)N4CCN(C(C(=O)NCCN)c5ccccc5)CC4)c3)sc2c1 (stereo not shown) [Example 93] | 79.4 nM | 63.1 nM | 7940 nM | 794 nM | 15800 nM | 631 nM | 3980 nM
22 | COc1ccc2nc(-c3cccc(C(=O)N4CCN(C5(c6ccccc6)CCN(C)C5=O)CC4)c3)sc2c1 (stereo not shown) [Example 131] | 3160 nM | 3980 nM | > 50100 nM | 2510 nM | 20000 nM | 39800 nM | 1580 nM
23 | COC(=O)C(c1ccccc1)N1CCCN(C(=O)c2cccc(-c3nc4ccc(OC)cc4s3)c2)CC1 (stereo not shown) [Example 132] | 794 nM | 631 nM | > 50100 nM | 2510 nM | > 50100 nM | 15800 nM | 39800 nM
24 | COc1nnc([C@@H](c2ccccc2)N2CCN(C(=O)c3cc(-c4nc5cc(OC(F)(F)F)ccc5o4)ccn3)CC2)o1 [Example 4] | 12.6 nM | 7.94 nM | 1260 nM | 79.4 nM | > 50100 nM | 100 nM | 100 nM
25 | COC(=O)C(c1ccccc1)N1CCN(C(=O)c2cccc(-c3ncc(C(=O)N4CCOCC4)s3)c2)CC1 (stereo not shown) [Example 89] | 79.4 nM | 79.4 nM | 15800 nM | 794 nM | > 50100 nM | 1260 nM | 1260 nM
26 | Cc1nnc([C@@H](c2ccccc2)N2CCN(C(=O)c3cccc(-c4ccc5ccccc5n4)c3)CC2)o1 [Example 112] | 501 nM | 398 nM | > 5010 nM | 1260 nM | 7940 nM | 6310 nM | 1580 nM
27 | Cc1nnc([C@@H](c2ccccc2)N2CCN(C(=O)[C@H]3CCCN(c4nc5cc(C(F)(F)F)ccc5o4)C3)CC2)o1 [Example 96] | 200 nM | 316 nM | 50100 nM | 1000 nM |  | 15800 nM | 794 nM
28 | COC(=O)C(c1ccccc1)N1CCN(C(=O)c2cc(-c3nc4cc(C(F)(F)F)ccc4o3)ccn2)CC1 (stereo not shown) [Example 16] | 15.8 nM | 15.8 nM | 3160 nM | 79.4 nM |  | 398 nM | 79.4 nM
29 | Cc1nnc(C(c2ccccc2)N2CCN(C(=O)c3ccnc(-c4nc5cc(C(F)(F)F)ccc5o4)c3)CC2)o1 (stereo not shown) [Example 101] | 631 nM | 794 nM | > 50100 nM | 1000 nM |  | 39800 nM | 2000 nM
30 | Cc1nnc(C(c2ccccc2)N2CCN(C(=O)c3cc(-c4nc5ccccc5o4)ccc3F)CC2)o1 (stereo not shown) [Example 52] | 200 nM | 200 nM | > 50100 nM | 398 nM |  | 20000 nM | 631 nM
31 | Cc1nnc(C(c2ccccc2)N2CCN(C(=O)[C@H]3CCCN(c4nc5cc(C(F)(F)F)ccc5o4)C3)CC2)o1 (stereo partly shown) [Example 110] | 398 nM | 794 nM | > 50100 nM | 1260 nM |  | 50100 nM | 1260 nM
